Results as given in ChEMBL document CHEMBL5257031, “Drug-like Antagonists of P2Y Receptors-From Lead Identification to Drug Development” (J Med Chem, 2016).

Columns and labels:
P2Y purinoceptor 2 = P2Y purinoceptor 2 (Mus musculus, UniProt P35383); assay: Antagonist activity at mouse P2Y2
[1] = Antagonist activity at human P2Y12 by aggregation assay
P2Y purinoceptor 13 [2] = target: T1, P2Y purinoceptor 13 (Homo sapiens, UniProt Q9BPV8); assay: Antagonist activity at P2Y13 (unknown origin)
T1 sequence (Q9BPV8 whole entry): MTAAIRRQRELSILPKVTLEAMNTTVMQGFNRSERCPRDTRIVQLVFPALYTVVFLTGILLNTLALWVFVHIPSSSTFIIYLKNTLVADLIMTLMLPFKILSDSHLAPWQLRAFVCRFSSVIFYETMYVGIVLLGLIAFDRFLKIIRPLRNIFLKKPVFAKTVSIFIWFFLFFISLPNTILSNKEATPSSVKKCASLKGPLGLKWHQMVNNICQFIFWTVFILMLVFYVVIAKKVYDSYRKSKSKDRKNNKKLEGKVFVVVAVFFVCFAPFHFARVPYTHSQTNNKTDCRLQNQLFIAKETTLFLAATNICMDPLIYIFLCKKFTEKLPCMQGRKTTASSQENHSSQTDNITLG

P2Y purinoceptor 1 [3] = target: T2, P2Y purinoceptor 1 (Homo sapiens, UniProt P47900); assay: Inhibition of human P2Y1
T2 sequence (P47900 whole entry): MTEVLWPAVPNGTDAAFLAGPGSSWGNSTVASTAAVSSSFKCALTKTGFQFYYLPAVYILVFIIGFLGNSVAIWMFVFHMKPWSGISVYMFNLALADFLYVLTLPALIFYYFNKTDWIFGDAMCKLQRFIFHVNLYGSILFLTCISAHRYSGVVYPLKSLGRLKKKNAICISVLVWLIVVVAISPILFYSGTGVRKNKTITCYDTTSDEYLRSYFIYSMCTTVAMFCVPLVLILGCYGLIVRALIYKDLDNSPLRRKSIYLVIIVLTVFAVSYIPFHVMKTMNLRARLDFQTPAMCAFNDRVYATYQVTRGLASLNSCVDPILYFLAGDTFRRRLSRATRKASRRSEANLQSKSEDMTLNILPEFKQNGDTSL

[4] = Clearance in rat; type: ADME; conditions: in vivo
[5] = Volume of distribution at steady state in rat; type: ADME; conditions: in vivo
[6] = Oral bioavailability in mouse; conditions: in vivo
[7] = Antagonist activity at human pA2 by FLIPR assay
[8] = Binding affinity to chimpanzee P2Y14 assessed as inhibition constant; parameters: species or system Pan troglodytes
[9] = Cmax in rat measured up to 24 hrs; type: ADME; parameters: time < 24 hrs; conditions: in vivo
[10] = Cmax in mouse measured up to 24 hrs; type: ADME; parameters: time < 24 hrs; conditions: in vivo
in vivo = conditions: mouse, po
P2Y purinoceptor 6 = P2Y purinoceptor 6 (Homo sapiens, UniProt Q15077); assay: Antagonist activity at human P2Y6
Sequence of P2Y purinoceptor 6 (Q15077 whole entry): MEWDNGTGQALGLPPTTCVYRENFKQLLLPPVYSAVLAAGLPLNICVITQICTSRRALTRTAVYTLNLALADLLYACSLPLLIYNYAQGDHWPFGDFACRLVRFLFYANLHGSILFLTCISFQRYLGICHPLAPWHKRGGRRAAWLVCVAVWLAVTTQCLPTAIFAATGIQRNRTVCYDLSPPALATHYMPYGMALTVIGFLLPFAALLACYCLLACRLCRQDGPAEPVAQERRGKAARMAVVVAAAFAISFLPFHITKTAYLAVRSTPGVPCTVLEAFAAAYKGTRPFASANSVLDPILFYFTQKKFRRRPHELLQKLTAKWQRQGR

[11] = Antagonist activity at P2Y14 using UDP-Glc as substrate
P2Y purinoceptor 1 [12] = target: T2, P2Y purinoceptor 1; assay: Agonist activity at human P2Y1
P2Y purinoceptor 12 [13] = target: T3, P2Y purinoceptor 12 (Homo sapiens, UniProt Q9H244); assay: Antagonist activity at human P2Y12
T3 sequence (Q9H244 whole entry): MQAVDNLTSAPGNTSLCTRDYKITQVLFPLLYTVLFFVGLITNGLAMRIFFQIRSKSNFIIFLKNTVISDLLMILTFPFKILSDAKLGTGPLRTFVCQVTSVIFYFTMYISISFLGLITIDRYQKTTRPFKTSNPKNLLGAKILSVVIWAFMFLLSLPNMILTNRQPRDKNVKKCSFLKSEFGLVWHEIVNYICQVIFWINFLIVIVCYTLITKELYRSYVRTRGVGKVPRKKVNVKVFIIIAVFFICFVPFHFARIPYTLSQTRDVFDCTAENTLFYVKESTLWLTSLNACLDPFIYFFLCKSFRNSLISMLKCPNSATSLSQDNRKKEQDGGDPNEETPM

P2Y purinoceptor 1 [14] = target: T2, P2Y purinoceptor 1; assay: Inhibition of human P2Y1 assessed as inhibition constant
P2Y purinoceptor 13 [15] = target: T1, P2Y purinoceptor 13; assay: Antagonist activity at human P2Y13
P2Y purinoceptor 14 [16] = target: T4, P2Y purinoceptor 14 (Rattus norvegicus, UniProt O35881); assay: Antagonist activity at rat P2Y14
T4 sequence (O35881 whole entry): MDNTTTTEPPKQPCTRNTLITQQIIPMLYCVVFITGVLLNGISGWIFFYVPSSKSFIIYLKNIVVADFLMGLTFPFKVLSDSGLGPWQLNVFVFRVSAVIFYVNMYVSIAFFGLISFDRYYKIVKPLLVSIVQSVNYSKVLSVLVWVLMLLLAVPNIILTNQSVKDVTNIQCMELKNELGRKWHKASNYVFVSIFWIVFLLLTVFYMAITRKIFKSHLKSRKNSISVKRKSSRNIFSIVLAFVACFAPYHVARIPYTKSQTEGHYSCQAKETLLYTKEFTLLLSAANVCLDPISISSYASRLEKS

P2Y purinoceptor 14 [17] = target: T5, P2Y purinoceptor 14 (Homo sapiens, UniProt Q15391); assay: Antagonist activity at human P2Y14 expressed in CHO cells assessed as inhibition constant; type: cell-based
T5 sequence (Q15391 whole entry): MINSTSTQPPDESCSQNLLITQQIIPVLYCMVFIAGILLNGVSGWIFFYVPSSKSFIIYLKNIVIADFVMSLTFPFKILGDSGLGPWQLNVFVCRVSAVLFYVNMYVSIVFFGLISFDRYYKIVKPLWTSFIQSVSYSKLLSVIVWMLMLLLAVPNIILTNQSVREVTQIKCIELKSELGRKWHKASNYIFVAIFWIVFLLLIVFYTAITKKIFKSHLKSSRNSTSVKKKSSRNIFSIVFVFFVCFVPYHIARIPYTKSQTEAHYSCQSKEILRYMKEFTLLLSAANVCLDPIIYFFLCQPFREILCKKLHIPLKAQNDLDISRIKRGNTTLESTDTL

[18] = Clearance in rat at 30 mg/kg, po; type: ADME, organism-based; conditions: in vivo
[19] = Volume of distribution at steady state in rat at 30 mg/kg, PO; type: ADME, organism-based; conditions: in vivo
[20] = Half life in rat 1 mg/kg, iv; type: ADME, organism-based; conditions: in vivo
[21] = Half life in rat 30 mg/kg, po; type: ADME, organism-based; conditions: in vivo
[22] = target: P2Y purinoceptor 4 (Rattus norvegicus) (UniProt O35811); assay: Agonist activity at rat P2Y4 transfected in human 1321N1 cells at 100 uM relative to control; type: cell-based
Sequence of P2Y purinoceptor 4 (Rattus norvegicus) (O35811 whole entry): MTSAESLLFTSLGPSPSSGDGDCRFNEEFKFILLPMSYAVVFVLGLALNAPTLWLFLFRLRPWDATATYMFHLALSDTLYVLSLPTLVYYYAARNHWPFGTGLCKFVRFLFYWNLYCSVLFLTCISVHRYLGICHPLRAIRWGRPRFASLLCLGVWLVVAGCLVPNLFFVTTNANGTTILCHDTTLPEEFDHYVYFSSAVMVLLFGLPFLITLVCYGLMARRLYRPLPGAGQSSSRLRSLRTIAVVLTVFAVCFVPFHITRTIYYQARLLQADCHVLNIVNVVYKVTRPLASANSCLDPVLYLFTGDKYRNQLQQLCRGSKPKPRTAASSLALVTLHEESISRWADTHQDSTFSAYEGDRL

P2Y purinoceptor 4 [23] = target: T6, P2Y purinoceptor 4 (Homo sapiens, UniProt P51582); assay: Agonist activity at human P2Y4 transfected in human 1321N1 cells at 100 uM relative to control; type: cell-based
T6 sequence (P51582 whole entry): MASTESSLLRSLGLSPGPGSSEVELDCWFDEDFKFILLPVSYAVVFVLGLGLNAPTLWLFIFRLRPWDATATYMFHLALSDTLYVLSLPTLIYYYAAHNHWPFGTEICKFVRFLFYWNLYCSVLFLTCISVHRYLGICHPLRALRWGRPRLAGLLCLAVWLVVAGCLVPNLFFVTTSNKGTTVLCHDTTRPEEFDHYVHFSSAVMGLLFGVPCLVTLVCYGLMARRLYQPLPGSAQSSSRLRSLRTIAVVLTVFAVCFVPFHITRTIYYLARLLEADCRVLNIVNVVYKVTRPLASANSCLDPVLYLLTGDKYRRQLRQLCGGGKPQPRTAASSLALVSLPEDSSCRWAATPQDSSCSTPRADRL

P2Y purinoceptor 4 [24] = target: T6, P2Y purinoceptor 4; assay: Agonist activity at human P2Y4 transfected in human 1321N1 cells; type: cell-based
P2Y purinoceptor 4 [25] = target: T6, P2Y purinoceptor 4
P2Y purinoceptor 4 [26] = target: P2Y purinoceptor 4 (Rattus norvegicus, UniProt O35811); assay: Agonist activity at rat P2Y4
Sequence of P2Y purinoceptor 4 (Rattus norvegicus, UniProt O35811) (O35811 whole entry): as the sequence (O35811 whole entry) above

P2Y purinoceptor 12 [27] = target: T3, P2Y purinoceptor 12; assay: Displacement of [3H]-2-MeS-ADP from human P2Y12 assessed as inhibition constant incubated for 30 mins
[28] = Antagonist activity at ATP gamma S induced mucin in Normal human bronchial epithelial cell; type: cell-based
[29] = Half life in C57BL/6 mouse 2 mg/kg, iv; type: ADME, organism-based; conditions: in vivo
[30] = Half life in C57BL/6 mouse 2 mg/kg, iv; conditions: in vivo
[31] = Oral bioavailability in C57BL/6 mouse at 50 mg/kg; conditions: in vivo

Sequence of P2Y purinoceptor 2 (P35383 whole entry): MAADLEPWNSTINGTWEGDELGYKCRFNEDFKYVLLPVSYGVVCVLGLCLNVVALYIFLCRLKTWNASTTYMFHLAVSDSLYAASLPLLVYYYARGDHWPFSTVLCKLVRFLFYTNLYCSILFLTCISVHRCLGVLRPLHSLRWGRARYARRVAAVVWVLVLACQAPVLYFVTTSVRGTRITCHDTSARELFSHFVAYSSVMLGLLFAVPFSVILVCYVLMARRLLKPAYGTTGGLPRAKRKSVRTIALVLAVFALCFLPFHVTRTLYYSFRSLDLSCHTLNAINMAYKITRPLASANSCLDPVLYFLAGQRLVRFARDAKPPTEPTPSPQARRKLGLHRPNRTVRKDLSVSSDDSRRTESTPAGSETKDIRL

## COc1ccc(-c2cc(=O)c3c(OC)c(OC)c(OC)c(OC)c3o2)cc1 [TANGERETIN]
P2Y purinoceptor 2
  IC50: 12000 nM

## CCCCNc1nc(SCCC)nc2c1nnn2[C@@H]1O[C@H](/C=C/C(=O)N[C@@H](CC(=O)O)C(=O)O)[C@@H](O)[C@H]1O
[1]
  pIC50: 9.5

## Nc1c(S(=O)(=O)O)cc(Nc2ccc(Nc3nc(Cl)nc(Nc4cccc(S(=O)(=O)O)c4)n3)c(S(=O)(=O)O)c2)c2c1C(=O)c1ccccc1C2=O [RB 2]
P2Y purinoceptor 13 [2]
  IC50: 1900 nM

## CNc1ncnc2c1ncn2[C@H]1C[C@H](OP(=O)(O)O)[C@@H](COP(=O)(O)O)O1
P2Y purinoceptor 1 [3]
  IC50: 330 nM

## Cc1ccc(C(=O)Nc2ccc(S(=O)(=O)O)c3cc(S(=O)(=O)O)cc(S(=O)(=O)O)c23)cc1NC(=O)c1cccc(NC(=O)Nc2cccc(C(=O)Nc3cc(C(=O)Nc4ccc(S(=O)(=O)O)c5cc(S(=O)(=O)O)cc(S(=O)(=O)O)c45)ccc3C)c2)c1 [SURAMIN HEXASODIUM]
P2Y purinoceptor 13 [2]
  IC50: 2300 nM

## CC(C)(C)CN1CCC2(CC1)CN(c1ccccc1NC(=O)Nc1nc3ccc(Cl)nc3s1)c1c(O)cc(F)c(-c3ccc(F)cc3)c12
[4]
  clearance: 4 mL/min/kg
[5]; read-out: Vdss
  Vd: 2.1 L/kg
[6]
  bioavailability: 30%
[7]
  IC50: 180 nM

## O=C(O)c1cc(-c2ccc(C3CCNCC3)cc2)c2ccc(-c3ccc(C(F)(F)F)cc3)cc2c1 [PPTN]
[8]
  Ki: 1.9 nM
[9]
  Cmax: 680 nM
[10]
  Cmax: 2280 nM
In vivo
  bioavailability: 5%
[6]
  bioavailability: 5%

## S=C=Nc1cccc(NC(=S)NCCCCNC(=S)Nc2cccc(N=C=S)c2)c1
P2Y purinoceptor 6
  IC50: 37 nM

## O=C(O)c1cc(-c2ccccc2)c2ccc(OCc3ccccc3)cc2c1
[11]
  IC50: 3500 nM

## Nc1ncnc2c1ncn2[C@H]1C[C@H](OP(=O)(O)O)[C@@H](COP(=O)(O)O)O1
P2Y purinoceptor 1 [12]
  EC50: 6300 nM
  IC50: 5800 nM

## CCOC(=O)N1CCN(C(=O)[C@H](CCC(=O)O)NC(=O)c2cc(OC(C)(C)C(=O)OCC)c3ccc(C)cc3n2)CC1
P2Y purinoceptor 12 [13]
  IC50: 130 nM

## CCc1ccccc1-n1nc(C)cc1Oc1ccccc1NC(=O)Nc1ccc(OC(F)(F)F)cc1
P2Y purinoceptor 1 [14]
  Ki: 70 nM

## Cc1nc(/N=N/c2cc([N+](=O)[O-])ccc2Cl)c(COP(=O)(O)O)c(C=O)c1O
P2Y purinoceptor 13 [15]
  IC50: 1070 nM

## Cc1cc(Oc2ccccc2NC(=O)Nc2ccc(OC(F)(F)F)cc2)n(-c2ccccc2Cl)n1
[4]
  clearance: 81 mL/min/kg
[5]
  Vdss: 15.7 L/kg

## O=c1ccn([C@@H]2O[C@H](COP(=O)(O)OP(=O)(O)O)[C@@H](O)[C@H]2O)c(=O)[nH]1 [URIDINE_DIPHOSPHATE]
P2Y purinoceptor 14 [16]
  EC50: 350 nM

## CC(=O)c1cc(C(=O)NCCCCCCn2cc(CCCCN3CCC(c4ccc(-c5cc(C(=O)O)cc6cc(-c7ccc(C(F)(F)F)cc7)ccc56)cc4)CC3)nn2)ccc1-c1c2ccc(=N)c(S(=O)(=O)O)c-2oc2c(S(=O)(=O)O)c(N)ccc12
P2Y purinoceptor 14 [17]
  Ki: 0.08 nM

## CC(C)(C)c1ccccc1Oc1ncccc1NC(=O)Nc1ccc(OC(F)(F)F)cc1
[18]
  CL/F: 13 mL/min/kg
[19]
  Vdss: 0.8 L/kg
[20]
  half-life: 15.4 h
[21]
  half-life: 1.4 h

## Nc1ncnc2c1ncn2[C@@H]1O[C@H](COP(=O)(O)OP(=O)(O)O)[C@@H](O)[C@H]1O
[22]
  Activity: 34%
P2Y purinoceptor 4 [23]
  Activity: 15%

## CCCCNc1nc(SCCC)nc2c1nnn2[C@@H]1C[C@H](/C=C/C(=O)N[C@@H](CC(=O)O)C(=O)O)[C@@H](O)[C@H]1O
[1]
  pIC50: 9.3

## Cc1nc(/N=N/c2ccc(S(=O)(=O)O)cc2S(=O)(=O)O)c(COP(=O)(O)O)c(C=O)c1O
P2Y purinoceptor 13 [2]
  IC50: 11600 nM

## Cc1cc(Oc2ccccc2NC(=O)Nc2ccc(C3CCS(=O)(=O)CC3)cc2)n(-c2ccccc2Cl)n1
P2Y purinoceptor 1 [14]
  Ki: > 10000 nM

## O=c1ccn([C@@H]2O[C@H](COP(=O)(O)OP(=O)(O)OP(=O)(O)O)[C@@H](O)[C@H]2O)c(=O)[nH]1 [URIDINE TRIPHOSPHATE]
P2Y purinoceptor 4 [24]
  EC50: 550 nM

## CNc1nc(Cl)nc2c1ncn2CCC(COP(=O)(O)O)COP(=O)(O)O
P2Y purinoceptor 1 [12]
  IC50: 840 nM

## CCCCNc1nc(SCCC)nc2c1ncn2[C@@H]1O[C@H](/C=C/C(=O)N[C@@H](CC(=O)O)C(=O)O)[C@@H](O)[C@H]1O
[1]
  pIC50: 7

## Nc1ncnc2c1ncn2[C@@H]1O[C@H](COP(=O)(O)OP(=O)(O)OP(=O)(O)O)[C@@H](O)[C@H]1O [ADENOSINE TRIPHOSPHATE]
P2Y purinoceptor 4 [25]
  EC50: 6200 nM
P2Y purinoceptor 4 [26]
  EC50: 1170 nM

## CCCSc1nc(N[C@@H]2C[C@H]2c2ccccc2)c2nnn([C@@H]3C[C@H](c4nnn[nH]4)[C@@H](O)[C@H]3O)c2n1
P2Y purinoceptor 12 [27]
  Ki: 2 nM

## Cc1nc(/N=N/c2ccc(Cl)c([N+](=O)[O-])c2)c(COP(=O)(O)O)c(C=O)c1O
P2Y purinoceptor 13 [15]
  IC50: 661 nM

## Cc1ccc2c(c1)C=Cc1cc(C)ccc1C2c1cn(Cc2ccc(C(=O)Nc3nnn[nH]3)o2)c(=O)[nH]c1=S
[28]
  IC50: 1000 nM

## Cc1cc(F)cc(C)c1COc1ccc2c(-c3ccsc3)cc(C(=O)O)cc2c1
[29]
  half-life: 2.7 h
[30]
  half-life: 2.7 h
[31]
  bioavailability: 12%

## S=C=Nc1ccc(CCc2ccc(N=C=S)cc2)cc1
P2Y purinoceptor 6
  IC50: 100 nM

## CCOC(=O)N1CCN(C(=O)[C@H](CCC(=O)O)NC(=O)c2cc(OC(C)(C)C(=O)O)c3ccc(C)cc3n2)CC1
P2Y purinoceptor 12 [13]
  IC50: 8.3 nM
